Measured values: patent US20220323536A1, “USE OF BETA-L-ASPARTYL-L-ARGININE ON SENESCENT SKIN” (SYMRISE AG, priority 2019, published 2022)

What was measured:
[1] = Reduction of wrinkle intensity (clinical study); assay type: in vivo, human
Method: (§1) The study was conducted with 26 female volunteers of age 53 +/−3 years. The application was done twice daily for two months. On one side of the face, the product is applied, on the other side the placebo.
Imaging: The evaluation is based on high-resolution digital photography under controlled conditions. Pictures were taken at the start of the study, after 28 days and after 56 days of product application.
The subjects were positioned in front of the optical arrangement and the face was photographed as portrait or close-up. The persons were photographed seated at controlled lighting. The conditions were kept constant during all photographs to ensure comparability.
Reduction of wrinkles and lines: The assessment of wrinkles and lines was done in a limited area around the eye of the subject. The intensity of the wrinkles and lines was measured as parameter R. The larger the value for R, the more pronounced are the wrinkles and lines. The relative reduction of wrinkles is calculated according to the following formula:
R%=100(Ri−RF)/Ri(R=wrinkle intensity, i=initial; f=final)
Data analysis and interpretation: For data analysis the following software packages were used: […]

senescent fibroblasts [2] = test: Reduction of nucleus to cell size (N/C) ratio in senescent fibroblasts (in vitro study); assay type: cell-based; conditions: vs untreated senescent fibroblasts; FIG. 4
Method: (§2) Senescent cells were incubated with β-L-aspartyl-L-arginine. Cell size and nuclear size were measured while cell density reflects the viability. […] See example 4 for the details of experimental procedure.
(§3) The cells were treated with β-L-aspartyl-L-arginine for 5 days. The cell images were taken after incubation. In order to label the nuclear and mitochondrial DNA, the cells were incubated with a fluorescent dye for 30 minutes. After removal of the dye, the images were taken with an epifluorescence microscope. Image analysis was performed in a 3-fold determination. Sampling 10 pictures per experimental condition or repetition, respectively.
(§4) Data collection: The images were taken with a Zeiss axioplan microscope. Image analysis was performed with a software developed by ICDD.
(§5) Data interpretation: The following data was collected: average cell size, mtDNA content, mitochondrial density, mitochondrial biogenesis, mitochondrial mass and cell nucelus size. The average cell number per field was used as control of cell viability for each experimental condition. The effect of active substances was also given as protective effect in comparison to non-treated cells. The effect of the positive control was included for comparison.

human skin explants [3] = test: Protection against carbonylation of proteins (ex vivo study); assay type: cell-based; conditions: UV stimulated skin treated with 0.2% and 0.5%, vs untreated UV stimulated skin; FIG. 9
Method: Detection of carbonylation: After removing the fatty and connective tissue, the frozen skin samples are weighed and cut. The skin pieces of the tested samples are combined and homogenized in a cold extraction buffer. Cell lysates are collected by centrifugation.
The measurement of the carbonylated protein is performed with the “OxyBlot Protein_Oxidation Kit by Millipore”, (#S7150) according to the protocol of the producer. Only the protein bands of a size between 50 kDa and 150 kDa were taken into account for the calculation. The obtained amount of carbonylated protein is normalized with the actin band (which is constant) and given with respect to the non-treated sample.

senescent fibroblasts [4] = test: Reduction of cell size in senescent fibroblasts (in vitro study); assay type: cell-based; conditions: amounts of more than 1.0 mM, vs untreated senescent fibroblasts; FIG. 3
Method: as §2, §3, §4, §5

[5] = Solubility and stability of the powder; assay type: physicochemical
senescent fibroblasts [6] = test: Reduction of mitochondrial DNA (mtDNA) in senescent fibroblasts (in vitro study); assay type: cell-based; conditions: 5 days treatment; FIG. 5
Method: Disruptions of the nuclear and mitochondrial DNA were studied, analyzed by detecting nucleus fragments, the mitochondrial DNA content, the mitochondrial mass and the average cell density, the latter as representation of viability.
as §3, §4, §5

collagen Typ III = test: Stimulation of collagen Type III (ex vivo study); assay type: cell-based; conditions: vs untreated skin; FIG. 12
Method: (§6) 4 μl of β-L-aspartyl-L-arginine were applied on the skin every day during 6 days of treatment at 37° C., 5% CO2 and 100% humidity. 12 skin cuts were immunohistochemically stained with selected antibodies. The papillary dermis was selected for the analysis because it is the part of the dermis, which changes the most in reaction to a previous treatment.
(§7) The area to be analyzed was carefully selected while it was made sure that irregular structures such as blood vessels, sweat glands or hair follicles were avoided.
(§8) For the assessment of the results, both, the color intensity and the color distribution were measured using Image-J analysis software (NIH, USA)—thus a semi-quantitative assessment was possible.

[7] = Improvement of skin firmness and elasticity (clinical study, cutometer); assay type: in vivo, human
Method: as §1
The method of measurement relies on suction. A vacuum is created in the gauge head of the cutometer, which sucks the skin into the measuring device. An optical arrangement, consisting of a light source and a light detector, measures the light intensity, which enters dependent on how much skin is sucked in. The resulting parameters are elasticity and skin firmness.
Skin firmness represents the resistance, which the skin creates against the suction by the vacuum. Elasticity, is the time, which the skin needs to return to its original state.

fibronectin = test: Stimulation of fibronectin proteins in the dermis (ex vivo study); assay type: cell-based; conditions: 4 μl topically every day during 6 days, vs untreated skin; FIG. 7
Method: as §6, §7, §8

senescent fibroblasts [8] = test: Reduction of mitochondrial ROS in senescent fibroblasts (in vitro study); assay type: cell-based
Method: Using a fluorescent dye, the antioxidative potential of β-L-aspartyl-L-arginine with respect to mitochondrial reactive oxygen species (ROS) was quantified. Senescent cells were incubated with β-L-aspartyl-L-arginine for 24 hours. Subsequently, the treated and non-treated senescent cells as well as the treated and non-treated non-senescent cells were incubated with the fluorescent dye for 30 minutes at 37° C. After washing, a portion of the non-senescent cells was treated with the oxidative reference substance H2O2 (100 μM). The mitochondrial ROS production was measured immediately every 5 mins over a period of 60 minutes. A microtiter plate reader (Varioskan-Thermo) was used as measuring device. During the kinetic measurement, the cells were further incubated at 37° C. Using fluorimetry, the antioxidative activity was measured in parallel with the viability of the cell. The experiments comprised a blank as well as a negative and a positive control. The positive control consists of […]. […] Senescent cells treated with resveratrol were used as reference for the comparison of the activity of β-L-aspartyl-L-arginine in the decrease of endogenous production of mitochondrial ROS in senescent cells. β-L-aspartyl-L-arginine was measured in a 4-fold measurement. […]

human skin explants [9] = test: Reduction of ROS score after UVA irradiation on human skin explants (ex vivo study); assay type: cell-based; conditions: topical, 18 h incubation, vs untreated UV irradiated skin, FIG. 6
Text: Cultivation of skin models: The skin was cut into about 8×3 mm large pieces (diameter×layer thickness of the models) and cultivated until the planned end of the experiment. Per treatment, six models each were used. The skin models were cultivated as air-liquid-interface cultures in a perforated stainless steel ring with contact to the culture medium (modified Williams 'E Medium) until the desired endpoint.
Treatment: Test substances and controls were applied topically. To this end, the skin models were carefully cleaned with a cotton pad. Subsequently, 4 μL of each test substance or the control, respectively, were applied to the models and covered with a membrane filter (diameter=6 mm).
The skin models were incubated for 18 h with test substance and positive control, respectively. […]
UV-irradiation: The used sun simulator was a BIO-SUN-system from the company Vilber Lourmat. […] The UV-light emission is constantly monitored and the system stops automatically when the pre-set energy quantity is reached. […]
Of each skin model, two samples were used for image capture with the fluorescence analysis. Each picture was analyzed by determining the fluorescence using Image-J analysis software (NIH, USA). The measured values were normalized over the size of the selected surface.
Statistics: For each treatment of the skin models, the averages of the quantitative data was determined. […]

[10] = after eight weeks, twice daily use of 0.1%

water solubility ([5]; white, odorless powder): water soluble
Structure (SMILES): N=C(N)NCCC[C@H](NC(=O)C[C@H](N)C(=O)O)C(=O)O [β-L-aspartyl-L-arginine]
volunteers with significant reduction of wrinkle intensity [1, 10]: 85%
reduction of wrinkle intensity compared to a placebo ([1]; after eight weeks, twice daily use of 0.1%, 26 female volunteers): 6.8%
wrinkles and fine lines on crow feet ([1]; four weeks of twice daily use of 0.1%, FIG. 8): visibly smoothes wrinkles and fine lines
nucleus to cell size ratio in senescent fibroblasts (senescent fibroblasts [2]): reduced compared to untreated senescent fibroblasts
formation of carbonylated proteins (human skin explants [3]): prevent the formation of carbonylated proteins
cell size of senescent fibroblasts (senescent fibroblasts [4]): reduce cell size
stability ([5]; pH from 5 to 9, up to 50° C.): stable at a pH from 5 to 9 at up to 50 °C
mtDNA in senescent cells (senescent fibroblasts [6]): reduced by β-L-aspartyl-L-arginine to an amount comparable to young replicative cells
collagen Typ III production (collagen Typ III): stimulate the collagen Typ III production
enhancement of skin elasticity compared to the placebo [7, 10]: +8.5%
enhancement of skin firmness compared to the placebo [7, 10]: +10.1%
volunteers with significant enhancement of skin elasticity [7, 10]: 100%
volunteers with significant enhancement of skin firmness [7, 10]: 92%
skin firmness ([7]; four weeks of twice daily use of 0.1%, FIG. 10): visibly improves skin firmness
skin elasticity ([7]; four weeks of twice daily use of 0.1%, FIG. 11): visibly improves skin elasticity
fibronectin production in the dermis (fibronectin): stimulate the fibronectin production
mitochondrial ROS (mtROS) (senescent fibroblasts [8]; 10 μM, 24 hours incubation, senescent cells vs non-treated senescent cells, FIG. 1): significant reduction of mitochondrial ROS
dosage dependence of the mtROS reduction effect (senescent fibroblasts [8]; values with respect to untreated senescent cells = 100%, FIG. 2): Increasing amounts of β-L-aspartyl-L-arginine show a larger reduction
ROS score of UV irradiated skin (dermis) (human skin explants [9]): significantly reduces the ROS score
